1 compound from ChEMBL document CHEMBL5143742, “Discovery and Characterization of a Novel Series of Chloropyrimidines as Covalent Inhibitors of the Kinase MSK1” (ACS Med Chem Lett, 2022) can be followed below.

A short description of data set [1]: Lipophilicity, log D of the compound. The class given is physicochemical. Particulars: octanol/water.
Data set [2] in a line: Intrinsic clearance in mouse liver microsomes assessed per mg protein. Type of data set: ADME, Microsome. In general terms: Microsomes from liver hold many membrane-bound enzymes, among them those of drug oxidation.
The nature of data set [3]: Intrinsic clearance in human liver microsomes assessed per mg protein. Type of data set: ADME, Microsome.

`Clc1ncc(Cl)c(-n2ccc3ncccc32)n1` returned a logD in data set [1] of 2.3. Besides, the CLH worked out at 131 µL/min in data set [2] and 11.7 µL/min in data set [3].

As usually defined, the logD is the decadic logarithm of the distribution of all forms, ionised or not, between an organic phase and buffer at a given pH. A higher logD goes with a more lipophilic compound.
